Converted amounts (≈) assume the structure as drawn.
Experiments:
[1] = Aqueous solubility of the compound; assay type: physicochemical
HepG2 = assay: Cytotoxicity against human HepG2 cells by MTT assay; assay type: functional, cell-based

SMILES: COC1=C2C[C@@H](C)C[C@H](OC)[C@H](O)[C@@H](C)/C=C(\C)[C@H](OC(N)=O)[C@@H](OC)CC/C=C(\C)C(=O)NC(=C([C@H](OC)C(=O)C[C@@H](C)O)C1=O)C2=O
- solubility [1]: 7700 µg/mL (≈ 11.1 mM)
- IC50 (HepG2): 22.4 µM

SMILES: COC1=C2C[C@@H](C)C[C@H](OC)[C@H](O)[C@@H](C)/C=C(\C)[C@H](OC(N)=O)[C@@H](OC)/C=C\C=C(/C)C(=O)NC(=C([C@H](OC)C(=O)C[C@@H](C)O)C1=O)C2=O
- solubility [1]: 15400 µg/mL (≈ 22.3 mM)
- IC50 (HepG2): 14.6 µM

SMILES: COC1=C2C[C@@H](C)C[C@H](OC)[C@H](O)[C@@H](C)/C=C(\C)[C@H](OC(N)=O)[C@@H](OC)/C=C\C=C(/C)C(=O)NC(=CC1=O)C2=O [GELDANAMYCIN]
- solubility [1]: 2 µg/mL (≈ 0.00357 mM)
- IC50 (HepG2): 0.3 µM

From ChEMBL document CHEMBL2375309, “19-[(1'S,4'R)-4'-Hydroxy-1'-methoxy-2'-oxopentyl]geldanamycin, a natural geldanamycin analogue from Streptomyces hygroscopicus 17997” (J Nat Prod, 2013)
